Measurements as given in US20090176798A1, “New compounds III” (Biovitrum AB, priority 2007, published 2009).
pEC50: −log10 of the molar value.

What was measured:
JEG-3 cells [1] = assay: [3H]-thymidine incorporation in JEG-3 cells (leptin assay in non-recombinant system); type: cell-based; conditions: FIG. 5
Protocol: In JEG-3 cells (choriocarcinoma cell line) leptin is able to stimulate proliferation up to 3 fold (Biol. Reprod. (2007) 76: 203-10). […] The radioactivity incorporated by the cells is an index of their proliferative activity and is measured in counts per minute (CPM) with a liquid scintillation beta counter.
This finding can be applied to test whether a compound is able to either reproduce the effect of leptin on cell proliferation (leptin receptor agonist mimetic) (i.e., a given compound will cause an increase in incorporated [^3H]-Thymidine by the cells) or to inhibit the effect of leptin (antagonistic effect) by preventing the leptin-mediated increase in [^3H]-thymidine incorporation.
This approach has the advantage of using a non-recombinant system and has reasonable reproducibility and robustness.

JEG-3 cells [2] = conditions: Biol. Reprod. (2007) 76: 203-10; cited from earlier work

## leptin: a hormone synthesized in fat cells that is believed to act in the hypothalamus to reduce food intake and body weight
JEG-3 cells [1]; JEG-3 cells (choriocarcinoma cell line), read-out: EC50, increase in [3H]-thymidine incorporation
  pEC50: 8.68
JEG-3 cells [1]; JEG-3 cells
  concentration of maximal effect on [3H]-thymidine incorporation: 100 nM
JEG-3 cells [2]
  stimulation of proliferation: up to 3 fold
